Values quoted from earlier work, collected in US20060120979A1, “Skin care composition comprising hydroquinone and a substantially anhydrous base” (priority 2004, published 2006).

solubility in alcohols (alcohols): freely soluble | solubility in water (water): less soluble
SMILES: Oc1ccc(O)cc1 [Hydroquinone]
